Results on ten molecules are retold here after US11788147B2, “Markers of triple-negative breast cancer and uses thereof” (Vanderbilt University, priority 2011, dated 2023).

Where two headings read alike, the source gives them in different places.

Experiment [1] has as its system activated caspase 3/7 in AR-positive TNBC cell lines. In words: Caspase 3/7 activity (Caspase-Glo). It is filed as cell-based, human. The following applies: 48 h; ADR 3 μM, bicalutamide 50 μM, GDC-0941 3 μM, GDC-0980 1 μM. As to the method: Cell lines were seeded in triplicate in 96-well plates. Media was removed and replaced with media containing vehicle (control) or indicated drugs. After 48 hrs, apoptosis was determined by measuring luciferase from activated caspase 3/7 upon addition of Caspase-Glo reagent (Promega, Madison, WI). Relative levels of caspase activity were normalized to viable cell number determined by metabolic reduction of Alamar blue.

Experiment [2] has as its system mesenchymal-like (M and MSL) TNBC cell lines. Put plainly: Cell proliferation/viability assay (alamarBlue) and IC50 determination. It counts as cell-based, human. The following applies: 72 hours. As to the method:
(§1) Cell proliferation/viability assays and IC50 determinations. All cell lines and culture conditions used can be found in Supplemental Methods (Table 5). Short tandem repeat (STR) DNA fingerprinting analysis was performed on all TNBC cell lines used in this study (Cell Line Genetics). […] Breast cancer cell lines and HMECs were seeded (3,000-10,000 cells) in quadruplicate wells in 96-well plates. […] Viability was determined from measuring fluorescent intensity after metabolic reduction of alamarBlue in the presence/absence of the drug after 72 hours. Viability assays were performed in triplicate, and replicates were normalized to untreated wells. […] For analysis of cell-line drug assays, data generated from the different cell lines representative of TNBC subtypes were compared using the nonparametric Mann-Whitney U test. All analyses and graphic representations were performed using Prism software (version 4.0c; GraphPad Software), and values are represented as the mean±SEM.
(The colour change of resazurin is a common sign of viable cells or microbes.)

In the next experiment the test system is LAR TNBC cell lines. The experiment is described as above. It is filed as cell-based, human. The following applies: 72 hours. As to the method:
(§2) Cell proliferation/viability assays and IC50 determinations. All cell lines and culture conditions used can be found in Supplemental Methods (Table 5). Short tandem repeat (STR) DNA fingerprinting analysis was performed on all TNBC cell lines used in this study (Cell Line Genetics). […] Breast cancer cell lines and HMECs were seeded (3,000-10,000 cells) in quadruplicate wells in 96-well plates. […] Medium was then replaced with either fresh medium (control) or medium containing half-log serial dilutions of the following drugs: 0.3-30 μM olaparib (ChemieTek), 0.3-30 μM veliparib (ChemieTek), 1-100 μM bicalutamide (IPR Pharmaceutical), 0.3-30 μM cisplatin (APP Pharmaceutical), 3-300 nM NVP-BEZ235 (Chemdea), 10-1000 nM 17-DMAG (ChemieTek), and 0.1-10 μM dasatinib (LC Laboratories). Viability was determined from measuring fluorescent intensity after metabolic reduction of alamarBlue in the presence/absence of the drug after 72 hours. Viability assays were performed in triplicate, and replicates were normalized to untreated wells. […] For analysis of cell-line drug assays, data generated from the different cell lines representative of TNBC subtypes were compared using the nonparametric Mann-Whitney U test. All analyses and graphic representations were performed using Prism software (version 4.0c; GraphPad Software), and values are represented as the mean±SEM.

Experiment [3] concerns basal-like (BL1 and BL2) TNBC cell lines. Described as above. It counts as cell-based, human. The method, then: as §2
The test system of experiment [4] is BRCA2-mutant cell line HCC1599. Described as above. It is filed as cell-based. The following applies: Homo sapiens, 72 hours, viability. As to the method:
as §2

Experiment [5] deals with BRCA1-null cell line HCC1937. Described as above. It is filed as cell-based. As to conditions: Homo sapiens, 72 hours, viability. The method, then: as §2
Experiment [6] has as its system BRCA1-mutant MDA-MB-436 cell line. The experiment is described as above. It counts as cell-based. The following applies: Homo sapiens, 72 hours, viability. As to the method: as §2
Experiment [7] concerns mesenchymal-like TNBC cell lines. Put plainly: Cell proliferation/viability assay and IC50 determination (Example 3). It counts as cell-based, human. The following applies: 72 hours; basal-like, mesenchymal-like and normal cells compared. As to the method:
Cell proliferation/viability assays and IC50 determinations. All cell lines were maintained in culture as previously described herein. Breast cancer cell lines and HMECs were seeded (3,000-10,000 cells) in quadruplicate wells in 96-well plates. Media was then replaced with either fresh media (control) or media containing half-log serial dilutions of the following drugs: Sorafenib, OSi-906, BMS-754807 and PF2341066 purchased from Selleck Chemicals (Houston, TX) Viability was determined from measuring fluorescent intensity after metabolic reduction of Alamar Blue in the presence/absence of drug after 72 hours. Viability assays were performed in triplicate and replicates were normalized to untreated wells. Inhibitory concentration (IC50) values were determined after double-log transformation of dose response curves.

For the next experiment, the system named is MDA-MB-453 cells. In words: Sub-G1 (sub 2N DNA) fraction by FACs analysis. The following applies: 48 h after treatment; increase from 5.25%. It counts as cell-based, human. The method, then:
FIGS. 31A-31B: Combined inhibition of AR and PI3K increases apoptotic cell death in AR+TNBC cell lines. (31A) Bar graphs display relative caspase 3/7 activity (RLU) normalized to viable cell number 48 hrs after treatment with vehicle, positive control (3 μM adriamycin, ADR), 50 μM bicalutamide (CDX) and 3 μM GDC-0941 or 1 μM GDC-0980 alone or in combination with CDX. (31B) Histograms show representative cell cycle analysis of MDA-MB-453 cells treated with similar conditions as above. Indicated percentages represent the fraction of hypodiploid DNA (sub-G1), indicative of late stage apoptotic DNA fragmentation.
In addition to caspase activation, the percentage of sub 2N DNA (sub-G1)-containing cells (indicative of late stage apoptotic DNA fragmentation) was quantitated by FACs analysis. […] Therefore, the decreased viability of AR-positive TNBC cell lines treated with a combination of AR and PI3K inhibitors can be, in part, attributed to apoptosis.

In another experiment the test system is TNBC cell lines. Put plainly: Cell proliferation/viability assay (alamarBlue), panel of TNBC cell lines (Example 1). It is filed as cell-based, human. The following applies: Homo sapiens; majority of TNBC cell lines; read-out: IC50 not achieved using the highest dose. The method, then: as §1

On to `COc1cccc2c1C(=O)c1c(O)c3c(c(O)c1C2=O)C[C@@](O)(C(=O)CO)C[C@@H]3O[C@H]1C[C@H](N)[C@H](O)[C@H](C)O1` [adriamycin], for which, in experiment [1], the “caspase 3/7 activation” value is on record as “robust caspase activation”.
Usually IC50 stands for the point on the concentration scale where inhibition reaches its midpoint. As to `Cc1nc(Nc2ncc(C(=O)Nc3c(C)cccc3Cl)s2)cc(N2CCN(CCO)CC2)n1` [dasatinib], the IC50 came to 22 µM in experiment [2] (Homo sapiens, mesenchymal-like subtypes (M and MSL)); 88 µM with LAR TNBC cell lines (Homo sapiens, LAR lines).
As to `CO[C@H]1/C=C\C=C(/C)C(=O)NC2=CC(=O)C(NCCN(C)C)=C(C[C@@H](C)C[C@H](OC)[C@H](O)[C@@H](C)/C=C(\C)[C@@H]1OC(N)=O)C2=O` [17-DMAG, 17-dimethylaminoethylamino-17-demethoxy-geldanamycin], the IC50 in [2] (mesenchymal-like cell lines) stood at 0.117 µM; in experiment [3] (72 hours, read-out: average IC50), 0.081 µM; with LAR TNBC cell lines (LAR cell lines), 0.016 µM.
On to `C[C@]1(c2nc3c(C(N)=O)cccc3[nH]2)CCCN1` [veliparib], for which the IC50 was above 30 µM in experiment [4], 4 µM in [5] and 18 µM in [6].
Turning to `C[C@]1(O)C[C@@H](c2nc(-c3ccc4ccc(-c5ccccc5)nc4c3)c3c(N)nccn32)C1` [OSI-906], the “viability (half-maximal inhibitory concentration) across TNBC subtypes” value in [7] was “selectively inhibits viability of mesenchymal-like TNBC cell lines”.
Still for that read-out and setting: under `C[C@@]1(C(=O)Nc2ccc(F)nc2)CCCN1c1nc(Nc2cc(C3CC3)n[nH]2)c2cccn2n1` [BMS-754807] stands “selectively inhibits viability of mesenchymal-like TNBC cell lines”.
For `C[C@@H](Oc1cc(-c2cnn(C3CCNCC3)c2)cnc1N)c1c(Cl)ccc(F)c1Cl` [PF2341066], the “viability (half-maximal inhibitory concentration) across TNBC subtypes” value in experiment [7] is given as “selectively inhibits viability of mesenchymal-like TNBC cell lines”.
With `CC(O)(CS(=O)(=O)c1ccc(F)cc1)C(=O)Nc1ccc(C#N)c(C(F)(F)F)c1` (stereo not drawn) [bicalutamide], the IC50 in experiment [2] (Homo sapiens, subset of mesenchymal-like cell lines that express low levels of AR (HS578T, BT549, CAL-51, MDA-MB-231)) was 361 µM; with TNBC cell lines it was above 500 µM; in [3] (Homo sapiens, 72 h, read-out: IC50), above 600 µM; in the experiment with LAR TNBC cell lines (Homo sapiens, LAR lines) it was 227 µM. The sub-G1 fraction with MDA-MB-453 cells amounted to 18.44%.
As for `O=C(c1cc(Cc2n[nH]c(=O)c3ccccc23)ccc1F)N1CCN(C(=O)C2CC2)CC1` [olaparib], the IC50 was above 100 µM in experiment [4], above 100 µM in experiment [5] and 14 µM in [6].
Regarding `CNC(=O)c1cc(Oc2ccc(NC(=O)Nc3ccc(Cl)c(C(F)(F)F)c3)cc2)ccn1` [sorafenib], the “viability (half-maximal inhibitory concentration) across TNBC subtypes” value in experiment [7] is “selectively inhibits viability of mesenchymal-like TNBC cell lines”.
